What was measured:
[1] = Crystal; DTA
[2] = Molar enthalpy of transition or fusion; conditions: Crystal; DSC
[3] = molar heat capacity at constant pressure; conditions: 100 kPa, Liquid, Small sample (50 mg) DSC
[4] = molar heat capacity at constant pressure; xn = mol fraction of the nth substance listed; conditions: 100 kPa, Liquid, Small sample (50 mg) DSC

c1ccc(-c2ccccc2)cc1 [biphenyl]
Conditions | Molar enthalpy of transition or fusion [kcal/mol] | Normal melting temperature [°C]
[1] | – | 69.0
[2] | 4.43 | –

[3]
Conditions | molar heat capacity at constant pressure [J/K/mol]
353.15 K | 271.56
373.15 K | 280.81

c1ccc(-c2ccccc2)cc1 [biphenyl] + c1ccc(Oc2ccccc2)cc1
[4], x2 = 0
Conditions | molar heat capacity at constant pressure [J/K/mol]
353.15 K | 271.56
373.15 K | 280.81

c1ccc(Oc2ccccc2)cc1 [diphenyl ether]
Conditions | Molar enthalpy of transition or fusion [kcal/mol] | Normal melting temperature [°C]
[1] | – | 26.98
[2] | 4.07 | –

[3]
Conditions | molar heat capacity at constant pressure [J/K/mol]
313.15 K | 261.61
333.15 K | 272.33
353.15 K | 281.69
373.15 K | 290.88

c1ccc(Oc2ccccc2)cc1 [diphenyl ether] + c1ccc(-c2ccccc2)cc1
molar heat capacity at constant pressure [J/K/mol], [4]
Conditions | x1 = 0.05 | x1 = 0.15 | x1 = 0.2499 | x1 = 0.4 | x1 = 0.55 | x1 = 0.705 | x1 = 0.85 | x1 = 0.95 | x1 = 1
293.15 K | – | – | – | – | – | 263.62 | – | – | –
313.15 K | – | – | – | – | 271.57 | 271.4 | 267.65 | 262.24 | 261.61
333.15 K | – | – | 270.37 | 273.51 | 278.25 | 279.18 | 276.55 | 272.24 | 272.33
353.15 K | 272.81 | 277.2 | 279.39 | 282.35 | 285.59 | 286.13 | 285.61 | 281.72 | 281.69
373.15 K | 282.42 | 285.5 | 286.99 | 290.38 | 292.44 | 293.24 | 294.5 | 290.87 | 290.88
